Experiment [1] concerns the target Kappa-type opioid receptor (Homo sapiens, UniProt P41145).
For another experiment, the target named is Mu-type opioid receptor (Rattus norvegicus, UniProt P33535).
Chain of Mu-type opioid receptor (P33535 whole entry): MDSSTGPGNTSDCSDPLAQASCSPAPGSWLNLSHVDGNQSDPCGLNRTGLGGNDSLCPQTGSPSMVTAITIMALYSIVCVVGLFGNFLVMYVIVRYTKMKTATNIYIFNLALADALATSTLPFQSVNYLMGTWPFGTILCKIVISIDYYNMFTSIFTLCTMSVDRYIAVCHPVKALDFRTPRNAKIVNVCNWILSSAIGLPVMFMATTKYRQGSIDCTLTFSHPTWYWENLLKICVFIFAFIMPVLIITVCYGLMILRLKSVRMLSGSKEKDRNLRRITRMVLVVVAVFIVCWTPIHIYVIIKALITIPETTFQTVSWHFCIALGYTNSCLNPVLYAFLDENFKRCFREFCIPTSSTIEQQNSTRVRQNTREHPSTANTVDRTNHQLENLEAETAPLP

Chain of Kappa-type opioid receptor (P41145 whole entry): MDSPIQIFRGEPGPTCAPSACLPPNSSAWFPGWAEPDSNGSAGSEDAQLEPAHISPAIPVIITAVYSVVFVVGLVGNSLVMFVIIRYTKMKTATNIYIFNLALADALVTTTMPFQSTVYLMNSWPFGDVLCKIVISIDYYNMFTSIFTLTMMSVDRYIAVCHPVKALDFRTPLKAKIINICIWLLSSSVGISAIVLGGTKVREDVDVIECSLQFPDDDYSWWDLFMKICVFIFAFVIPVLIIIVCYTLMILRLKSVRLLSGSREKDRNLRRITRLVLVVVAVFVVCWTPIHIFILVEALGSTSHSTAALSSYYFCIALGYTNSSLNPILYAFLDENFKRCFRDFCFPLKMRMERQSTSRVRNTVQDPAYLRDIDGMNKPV

In general, Ki refers to a dissociation constant, usually derived from enzyme kinetics or from competition with a known ligand. Lower therefore signals higher affinity. Molecule `COC(=O)C12CN(C)CC(C(=O)OC)(C1=O)C(c1cccc(F)c1)N(C)C2c1cccc(F)c1` (configuration not stated) returned a Ki in experiment [1] of 248 nM.

On Mu-type opioid receptor, `CN(C(=O)C=Cc1ccoc1)C1CCC2(O)C3Cc4ccc(O)c5c4C2(CCN3CC2CC2)C1O5` (configuration not stated) [CAS_213055] came in with a Ki of 5.2 nM. This lies in the single-digit nanomolar range.

For the origin of these results see BindingDB's records for doi:10.1124/jpet.104.073668 (Temple University, 2005).
